Laboratory results from patent US5232849A, “Bacteriocin from lactococcus lactis subspecies lactis” (Quest International Flavors & Food Ingredients Company …, priority 1992, dated 1993).

Experiments:
Assay in all cases: Spectrum of antimicrobial activity
Set-up in all cases: key: + = inhibition; - = no inhibition
Details in all cases: pure, titer 3200 AU/ml
L. monocytogenes 59 = format: cell-based
Procedure: (§1) Bacteriocin assay. To ascertain if the antibacterial substance is secreted into liquid medium, the cultures were grown in MRS broth and cell free filtrates of turbid cultures were made and the filtrate posted on a seeded semisolid agar overlay of the indicator. Antibacterial activity was quantitated by assigning arbitrary units. One arbitrary unit (AU) was defined as 5 μl of the culture supernatant yielding a definite, clear zone of inhibition on the indicator lawn. The titer was expressed as the reciprocal of the highest dilution of supernatant showing inhibition.

L. monocytogenes 08 = format: cell-based
Procedure: as §1

L. monocytogenes 36 = format: cell-based
Procedure: as §1

L. monocytogenes 62 = format: cell-based
Procedure: as §1

L. monocytogenes 38 = format: cell-based
Procedure: as §1

L. monocytogenes 69 = format: cell-based
Procedure: as §1

L. monocytogenes 04 = format: cell-based
Procedure: as §1

B. subtilis RM125 = format: cell-based, Bacillus subtilis
Procedure: as §1

B. subtilis amylase^+ = format: cell-based, Bacillus subtilis
Procedure: as §1

S. mutans GS5 = format: cell-based, Streptococcus mutans
Procedure: as §1

S. mutans V262 = format: cell-based, Streptococcus mutans
Procedure: as §1

L. brevis 888 = format: cell-based, Lactobacillus brevis
Procedure: as §1

L. brevis 329 = format: cell-based, Lactobacillus brevis
Procedure: as §1

L. fermentum 342 = format: cell-based, Lactobacillus fermentum
Procedure: as §1

L. fermentum 701 = format: cell-based, Lactobacillus fermentum
Procedure: as §1

P. pentosaceus FBB63C = format: cell-based, Pediococcus pentosaceus
Procedure: as §1

P. acidilactici C = format: cell-based, Pediococcus acidilactici
Procedure: as §1

P. acidilactici A = format: cell-based, Pediococcus acidilactici
Procedure: as §1

P. acidilactici B = format: cell-based, Pediococcus acidilactici
Procedure: as §1

P. acidilactici PAC 1.0 = format: cell-based, Pediococcus acidilactici
Procedure: as §1

P. acidilactici D = format: cell-based, Pediococcus acidilactici
Procedure: as §1

L. casei 842 = format: cell-based, Lactobacillus casei
Procedure: as §1

L. casei 326 = format: cell-based, Lactobacillus casei
Procedure: as §1

L. plantarum 346 = format: cell-based, Lactobacillus plantarum
Procedure: as §1

L. plantarum 355 = format: cell-based, Lactobacillus plantarum
Procedure: as §1

L. lactis LLA 2.0 = format: cell-based, Lactococcus lactis
Procedure: as §1

L. lactis LLA 1.0 = format: cell-based, Lactococcus lactis
Procedure: as §1

nisin [Nisin Pure]
inhibition of L. monocytogenes 59 (L. monocytogenes 59): +
inhibition of L. monocytogenes 08 (L. monocytogenes 08): +
inhibition of L. monocytogenes 36 (L. monocytogenes 36): +
inhibition of L. monocytogenes 62 (L. monocytogenes 62): +
inhibition of L. monocytogenes 38 (L. monocytogenes 38): +
inhibition of L. monocytogenes 69 (L. monocytogenes 69): +
inhibition of L. monocytogenes 04 (L. monocytogenes 04): +
inhibition of B. subtilis RM125 (B. subtilis RM125): +
inhibition of B. subtilis amylase^+ (B. subtilis amylase^+): +
inhibition of S. mutans GS5 (S. mutans GS5): +
inhibition of S. mutans V262 (S. mutans V262): -
inhibition of L. brevis 888 (L. brevis 888): +
inhibition of L. brevis 329 (L. brevis 329): +
inhibition of L. fermentum 342 (L. fermentum 342): +
inhibition of L. fermentum 701 (L. fermentum 701): +
inhibition of P. pentosaceus FBB63C (P. pentosaceus FBB63C): +
inhibition of P. acidilactici C (P. acidilactici C): +
inhibition of P. acidilactici A (P. acidilactici A): +
inhibition of P. acidilactici B (P. acidilactici B): +
inhibition of P. acidilactici PAC 1.0 (P. acidilactici PAC 1.0): +
inhibition of P. acidilactici D (P. acidilactici D): +
inhibition of L. casei 842 (L. casei 842): +
inhibition of L. casei 326 (L. casei 326): +
inhibition of L. plantarum 346 (L. plantarum 346): +
inhibition of L. plantarum 355 (L. plantarum 355): +
inhibition of L. lactis LLA 2.0 (L. lactis LLA 2.0): +
inhibition of L. lactis LLA 1.0 (L. lactis LLA 1.0): +
